Source: publication PMC5618690, “Structural and functional analysis of two small leucine-rich repeat proteoglycans, fibromodulin and chondroadherin” (Matrix Biology, 2017)

Key:
[1] = target: T1, chondroadherin (Homo sapiens, UniProt O15335); test: Binding of peptide AB31 to chondroadherin in solution by size exclusion chromatography
T1 construct: The construct comprises residues 23–359 of Uniprot O15335 and is untagged; made in house; host or cells: HEK293 c18 cells
T1 sequence (O15335 23-359): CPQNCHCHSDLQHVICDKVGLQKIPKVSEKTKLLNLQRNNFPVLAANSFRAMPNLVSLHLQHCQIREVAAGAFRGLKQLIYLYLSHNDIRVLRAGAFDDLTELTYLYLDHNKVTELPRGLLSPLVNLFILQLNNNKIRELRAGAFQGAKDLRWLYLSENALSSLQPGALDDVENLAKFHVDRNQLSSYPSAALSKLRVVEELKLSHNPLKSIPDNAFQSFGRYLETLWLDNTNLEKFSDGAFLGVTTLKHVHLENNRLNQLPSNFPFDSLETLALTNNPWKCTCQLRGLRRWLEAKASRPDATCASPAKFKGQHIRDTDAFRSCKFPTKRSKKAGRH
Description: The natural affinity of chondroadherin for Ni^2 + affinity resin was used to purify the untagged protein. The filtered serum-free cell culture supernatant was adjusted to a final concentration of 20 mM Na-HEPES (pH 7.5) and loaded onto a 5-ml HisTrap Excel column using an Äkta Purifier. Elution was performed with an imidazole gradient in buffer A. The chondroadherin protein was further purified by size exclusion chromatography as described for fibromodulin. Chondroadherin and the collagen-like peptide AB31 were mixed in a 1:2 molar ratio and incubated for 15 min at room temperature. The chondroadherin-AB31 complex was purified by size exclusion chromatography in buffer A.

[2] = target: decorin dimer; conditions: ref [26]; read-out: dissociation constant of decorin dimer; cited from earlier work
Source text: We used size exclusion chromatography with multi-angle light scattering (SEC-MALS) to determine the oligomeric states of fibromodulin and chondroadherin in solution (Fig. 4). The experimentally determined mass of fibromodulin was 56.7 kDa (calculated: 41.5 kDa + 4 N-linked glycans) and that of chondroadherin was 39.6 kDa (calculated: 38.6 kDa). In comparison, using the same SEC-MALS setup, we previously determined an experimental mass of 83.5 kDa for the glycosylated decorin core protein (calculated: 36.2 kDa + 4 N-linked glycans).

[3] = ref [26], cited from earlier work
Source text: Fig. 3 Concave face interactions in SLRP crystal structures. For each structure, two orthogonal views are shown. […] The experimentally determined mass of fibromodulin was 56.7 kDa (calculated: 41.5 kDa + 4 N-linked glycans) and that of chondroadherin was 39.6 kDa (calculated: 38.6 kDa). In comparison, using the same SEC-MALS setup, we previously determined an experimental mass of 83.5 kDa for the glycosylated decorin core protein (calculated: 36.2 kDa + 4 N-linked glycans).

| Substance | complex formation with chondroadherin in solution ([1]; SEC, Superdex 75, AB31:chondroadherin 2:1 molar ratio, 15 min, room temperature, buffer A (20 mM HEPES pH 7.5, 150 mM NaCl, 2 mM CaCl2)) | binding site quality of shared sequence ([1]; sequence shared by II-26 and AB31) | Kd [2] | oligomeric state in solution (literature) ([3]; not SEC-MALS of this work, [32], [33]) | experimental mass of glycosylated decorin core protein ([3]; same SEC-MALS setup, previously determined) |
| --- | --- | --- | --- | --- | --- |
| GAOGPSGFQGLOGPOGPO | forms a stable complex with chondroadherin in solution | high-affinity binding site for chondroadherin |  |  |  |
| decorin |  |  | 1400 nM | form stable dimers in solution | 83.5 kDa |
